According to US10023615B2, “Efficient transport into white blood cells” (priority 2008, dated 2018):
Square brackets hold non-standard residues; d marks the D form. Ends that are not written are not given here.

Legend:
[1] = test system: TC-3 cells; assay: Inhibition of IL-1 induced pancreatic beta-cell death; assay type: cell-based; conditions: 1 μM single addition, IL-1 every two days, 15 days
Procedure: Inhibition of IL-1 induced pancreatic beta-cell death by the D-TAT-IB1(s) peptide was analyzed. TC-3 cells were incubated for 30 minutes with one single addition of the indicated peptides (1, μM), then IL-1 (10 ng/ml) was added.
Apoptotic cells were then counted after two days of incubation with IL-1 by use of Propidium Iodide and Hoechst 33342 nuclear staining. A minimum of 1,000 cells were counted for each experiment.
Long term inhibition of IL-1P induced cell-death by the D-TAT-IB1 peptide was also analyzed. TC-3 cells were incubated for 30 minutes with one single addition of the indicated peptides (1 μM), then IL-1 (10 ng/ml) was added, followed by addition of the cytokine every two days. Apoptotic cells were then counted after 15 days of incubation with IL-1 by use of propidium iodide and Hoechst 33342 nuclear staining. […] A minimum of 1.000 cells were counted for each experiment.

[2] = test system: U937 cells; assay: Intracellular concentration of transporter constructs subsequent to uptake into U937 cells; assay type: cell-based; conditions: for intracellular concentration of transporter construct subsequent to uptake: U937 cells, 10 μM construct
Procedure: 9. Determination of Intracellular Concentration of Specific Transporter Constructs Subsequent to Uptake (Internalization) of these Peptides into U937 Cells • According to a further experiment, the concentration of specific transporter constructs subsequent to uptake (internalization) of these peptides into U937 cells were determined.

[3] = test system: Hela cells; assay: Internalization of r3-L-TAT-derived transporters in Hela cells; assay type: cell-based; conditions: 2, 6 or 24 hours; 0, 500 nM, 1 mM or 10 mM
Text: The time dependant internalization (uptake) of FITC-labeled TAT derived transporter constructs into cells of the HL-60 cell line was furthermore carried out with materials and methods as described above using sequences of the 96-FITC-labeled D-TAT derivative transporters. These sequences are listed below.
• In the above table D amino acids are indicated by a small “d” prior to the respective amino acid residue (e.g. dR=D-Arg). • For a few sequences synthesis failed in the first approach unfortunately due to technical reasons. […] Hela cells were incubated 24 hours in 96 well plate with […] of the r3-L-TAT-derived transporters. Alternatively, human lymphoma cells are used. The cells were then washed twice with an acidic buffer (0.2M Glycin, 0.15M NaCl, pH 3.0) and twice with PBS. Cells were broken by the addition of RIPA lysis buffer. […] Briefly, Hela cells were incubated 2, 6 or 24 hours in 24 well plate with increasing dose of the r3-L-TAT-derivative transporters (0, 500 nM, 1 mM or 10 mM). The cells were then washed twice with an acidic buffer (0.2M Glycin, 0.15M NaCl, pH 3.0) and twice with PBS. Cells were broken by the addition of RIPA lysis buffer.

[4] = test system: HepG2 hepatocarcinoma, HCT-116 tumoral colon; assay: Uptake of FITC-labeled TAT derived transporter constructs in HepG2 and HCT-116; assay type: cell-based, human; conditions: 10 μM, 24 h
[5] = test system: Lymphocytes T (CD3); assay: Flow cytometry of FITC-transporter content in primary human white blood cells: lymphocytes T; assay type: cell-based; conditions: 1 uM, 30 min
Text: (§1) Primary human white blood cells (WBC) were obtained from whole blood after red blood cell lysis. […] Cells containing D-TAT-FITC and r3-L-TAT-FITC were finally analysed by flow cytometry to measure their respective transporter content.

[6] = Tissue distribution of C14 radiolabeled D-TAT-tagged peptides; assay type: in vivo, mouse; conditions: 1 mg/kg s.c., i.v., i.p.; 72 hours after injection
Procedure: Mice were treated via three different routes of administration (s.c., i.v., i.p.) with radiolabeled peptides with C^14 (1 mg/kg). Animals were sacrificed 72 hours after injection and processed for immunoradiography. […] This illustrates that the transporter D-TAT is responsible for the tissue distribution.

[7] = test system: dissociated cortical primary neurons; assay: Confocal microscopy of FITC-labeled TAT derivative transporters in cortical primary neurons; assay type: cell-based, rat; conditions: 500 nM, 24 hours
Procedure: 8.4 Internalization Experiments and Analysis • The time dependant internalization (uptake) of FITC-labeled TAT derived transporter constructs into cells of the HL-60 cell line was carried out with materials and methods as described above. • Briefly, HL-60 cells were incubated 30 min, 1, 6 or 24 hours with 10 μM of the TAT-derivative transporters. The cells were then washed twice with an acidic buffer (0.2 M Glycin, 0.15 M NaCl, pH 3.0) and twice with PBS. Cells were broken by the addition of RIPA lysis buffer. The relative amount of internalized peptide was then determined by reading the fluorescence intensity (Fusion Alpha plate reader; PerkinElmer) of each extract followed by background substraction and protein content normalization. […] The dissociated cortical primary neurons from P2 Sprague Dawley rats were cultured 12 days in neurobasal medium before exposure 24 hours to 500 nM of the FITC-labeled • TAT derivative transporters. The cells were washed five times with PBS on ice and then mounted in fluorsave mounting medium without prior fixation. Acquisitions were performed on LSM510 metaconfocal microscope (Zeiss). Images were processed with LSM510 software and mounted using Adobe photoshop. Visualization by confocal microscopy of labeling with 500 nM FITC-transporters (A: green). Nuclei were stained by Hoechst (B: blue).

[8] = test system: Monocytes (CD14); assay: Flow cytometry of FITC-transporter content in primary human white blood cells: monocytes; assay type: cell-based; conditions: 1 uM, 30 min
Text: as §1

[9] = test system: Neutrophils (CD15); assay: Flow cytometry of FITC-transporter content in primary human white blood cells: neutrophils; assay type: cell-based; conditions: 1 uM, 30 min
Text: as §1

[10] = test system: U937 lymphoma cells; assay: Uptake (internalization) of FITC-labeled TAT derived transporter constructs in U937 cells, fluorescence plate reader; assay type: cell-based
Procedure: Cells were plated into poly-DL-lysine coated dishes at a concentration of 1×10^6 cells/ml. Plates were then incubated for 24 h at 37° C., 5% CO2, and 100% relative humidity prior to the addition of a known concentration of peptide. After peptide addition, the cells were incubated 30 min, 1, 6 or 24 h at 37° C., 5% CO2, and 100% relative humidity. Cells were then washed twice with an acidic buffer (Glycin 0.2 M, NaCl 0.15 M, pH 3.0) in order to remove the cell-surface adsorbed peptide (see Kameyama et al., (2007), Biopolymers, 88, 98-107). […] The cell wash using an acidic buffer was thus employed to remove the cell-surface adsorbed peptides. […] Cells were broken by the addition of the RIPA lysis buffer. The relative amount of internalized peptide was then determined by fluorescence after background substraction and protein content normalization. • The steps are thus: 1. […] Analysis of peptide internalization with a fluorescence plate reader • f) Cell Culture and Peptide Treatment • (1) The 6 well culture plates are coated with 3 ml of Poly-D-Lys (Sigma P9011; 25 μg/ml in PBS), the 24 well plates with 600 μl and the 96 well plates with 125 μl and incubated for 4 h at 37° C., CO2 5% and 100% relative humidity. • (2) After 4 hours the dishes were washed twice with 3.5 ml PBS, 700 μl or 150 μl PBS for the 6, 24 or 96 well plates, respectively. • (3) The cells were plated into the dishes in 2.4 ml medium (RPMI) at plating densities of 1′000′000 cells/ml for suspension cells. After inoculation, the plates were incubated at 37° C., 5% CO2 and 100% relative humidity for 24 hours prior to the addition of the peptide. Adherent cells should be at a density of 90-95% the day of treatment and were plated in DMEM :
• (4) The cells were treated with the desired concentration of FITC labeled peptide (stock solution at a concentration of 10 mM in H2O). • (5) Following peptide addition, the cells were incubated 0 to 24 hours (e.g. 30 min, 1, 6 or 24 hours) at 37° C., CO2 5% and 100% relative humidity. • Acidic Wash and Cellular Extracts: • (6) The extracts were cooled on ice. • Suspension cells (or cells, which don attach well to the dish): • Transfer the cells in ? […] To recover the maximum of cells, wash the dish with 1 ml of PBS. • Harvest the cells 2 min at 2400 rpm max. • Suspend the cells in 1 ml cold PBS. • Transfer the cells into a coated “Eppendorf tube” (coated with 1 ml of poly D-Lys for 4 hours and washed twice with 1 ml PBS). • Wash three times with 1 ml of cold acidic wash buffer and centrifuge 2 min at 2400 rpm max. Beware of the spreading of the cells in the “eppendorf”. • Wash twice with 1 ml cold PBS to neutralize. • Add 50 μl of lysis RIPA Buffer. • Incubate 30 min-1 h on ice with agitation. • Adherent Cells: • Wash three times with 3 ml, 1 ml or 200 μl (for 6, 24 or 96 well plates, respectively) of cold acidic wash buffer. Beware of the cells who detach from the dish. • Wash twice with 1 ml cold PBS (for 6, 24 or 96 well plates, respectively) to neutralize. • Add 50 μl of lysis RIPA buffer. • Incubate 30 min-1 h on ice with agitation. • Scrap the cells with a cold scrapper. The 24 and 96 well plates were directly centrifuged at 4000 rpm at 4° for 15 min to remove the cellular debris. Then the supernatants (100 or 50 ml respectively for the 24 or 96 well plates) were directly transferred in a dark 96 well plated.

[11] = test system: Lymphocytes B (CD19); assay: Flow cytometry of FITC-transporter content in primary human white blood cells: lymphocytes B; assay type: cell-based; conditions: 1 uM, 30 min
Text: as §1

L-TAT-IB1(s): SEQ ID NO: 234: L-IB1(s) linked to 10 amino acid L-TAT carrier via two proline residues (GRKKRRQRRRPPRPKRPTTLNLFPQVPRSQD; Description of sequence L-TAT-IB1 (s))
long term protection against IL-1 induced cell-death [1]: but not L-TAT-IB1(s), was able to confer long term (15 day) protection

rYKRrQRRr ([dR]YKR[dR]QRR[dR]) [TAT(s2-91)]
accumulation in the cell (intracellular concentration) ([2]; 10 μM in medium): significantly higher than the concentration of the transporter construct in the medium | intracellular concentration of transporter construct subsequent to uptake ([2]; 2 h): 3.16 | intracellular concentration of transporter construct subsequent to uptake ([2]; 4 h): 4.27 | intracellular concentration of transporter construct subsequent to uptake ([2]; 6 h): 4.68 | intracellular concentration of transporter construct subsequent to uptake ([2]; 24 h): 50 | transporter activity and kinetics of transport activity [3]: highest transporter activity

rrrRRRrrr [r6R3]
uptake (internalization) [4]: most efficient

rrrqrrkkr [D-TAT]
binding to cell population [5]: seeming to bind more efficiently to lymphocyte T than the r3-L-TAT | binding to cell population ([5]; listed as dTAT): binds to monocytes, neutrophils and lymphocyte T cells | tissue distribution (accumulation) [6]: in the liver, spleen, and bone marrow predominantly | internalization seen by confocal microscopy [7]: internalized into the cytoplasm of the non stressed neurons | binding to cell population [8]: binds to monocytes, neutrophils and lymphocyte T cells | binding to cell population [9]: binds to monocytes, neutrophils and lymphocyte T cells | intracellular concentration of transporter construct subsequent to uptake ([2]; 2 h): 2.00 | intracellular concentration of transporter construct subsequent to uptake ([2]; 4 h): 2.24 | intracellular concentration of transporter construct subsequent to uptake ([2]; 6 h): 3.55 | intracellular concentration of transporter construct subsequent to uptake ([2]; 24 h): 17.3 | uptake (internalization) [4]: most efficient | uptake (internalization) ([10]; 10 μM, U937, Lymphoma, 24 h): most efficient | HSPG dependency of uptake (internalization) ([10]; 500 nm over 24 hours in U937 cells): HSPG-dependent | binding to cell population [11]: less efficiently to lymphocyte B cells
